Experimental data from publication PMC8342789, “Structural insights into a flavin-dependent dehalogenase HadA explain catalysis and substrate inhibition via quadruple π-stacking” (The Journal of Biological Chemistry, 2021).

Assays:
[1] = target: T1, HadA (Ralstonia pickettii, UniProt Q53008); experiment: stopped-flow and HPLC of hydroquinone product; format: biochemical; conditions: 0.1-6.4 mM 4CP preincubated with enzyme; 25 μM FADH-; 20 mM Hepes pH 7.5; substrate inhibition by dead-end complex
T1 construct: recombinant, E. coli plasmid hadAWT-pET-11a; homotetramer (dimer of dimers); residues 1-517 by domain borders
T1 sequence (Q53008 1-517): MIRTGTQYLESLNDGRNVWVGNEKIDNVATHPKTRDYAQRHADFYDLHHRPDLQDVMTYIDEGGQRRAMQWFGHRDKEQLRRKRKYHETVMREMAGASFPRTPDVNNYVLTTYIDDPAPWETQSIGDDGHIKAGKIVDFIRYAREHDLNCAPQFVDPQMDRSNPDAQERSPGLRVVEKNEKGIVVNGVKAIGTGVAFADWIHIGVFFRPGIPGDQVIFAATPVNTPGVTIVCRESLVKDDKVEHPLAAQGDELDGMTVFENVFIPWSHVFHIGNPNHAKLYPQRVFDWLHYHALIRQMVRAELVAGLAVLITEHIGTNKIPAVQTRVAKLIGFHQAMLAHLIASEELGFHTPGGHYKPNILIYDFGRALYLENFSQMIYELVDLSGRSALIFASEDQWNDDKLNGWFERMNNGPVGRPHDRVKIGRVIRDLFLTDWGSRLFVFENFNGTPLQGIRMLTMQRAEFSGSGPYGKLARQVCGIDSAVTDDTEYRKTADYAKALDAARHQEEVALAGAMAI

[2] = target: T1, HadA; experiment: X-ray crystal structure, […] Å; format: binding
[3] = target: the molecule itself; experiment: crystal structure; HadA (0.3 mM) mixed with FADH- (12 mM) and 4NP (12 mM) in an anaerobic glove box, incubated 2 h; microbatch at 25 °C, sodium citrate, PEG3350, 5% trifluoroethanol, 0.1 M Bis-Tris propane pH 6.5; data at 100 K; molecular replacement with apo-HadA (PDB 6JHM chain A)

Molecule: Oc1ccc(Cl)cc1 [4-chlorophenol]
- stopped-flow and HPLC of hydroquinone product [1]: increasing the 4CP concentration significantly altered the kinetics of the reaction

Molecule: O=[N+]([O-])c1ccc(O)cc1 [4-nitrophenol]
- X-ray crystal structure, 2.3 Å ([2]; ternary complex with FADH-, active site of subunit A, second site at C/D dimer interface (two 4NP, quadruple π-stacking)): only one 4NP molecule could be clearly seen in the expected pocket of subunit A

Molecule: Cc1cc2c(cc1C)N(C[C@H](O)[C@H](O)[C@H](O)COP(=O)(O)OP(=O)(O)OC[C@H]1O[C@@H](n3cnc4c(N)ncnc43)[C@H](O)[C@@H]1O)c1[nH]c(=O)[nH]c(=O)c1N2 [FADH^–]
- X-ray crystal structure, 2.3 Å ([2]; ternary complex with 4NP): strong electron densities could be observed for all four FADH^– molecules

B1: wild-type HadA, flavin-dependent monooxygenase/dehalogenase component from Ralstonia pickettii (enzyme, UniProt Q53008 1-517, looked up)
chain: MIRTGTQYLESLNDGRNVWVGNEKIDNVATHPKTRDYAQRHADFYDLHHRPDLQDVMTYIDEGGQRRAMQWFGHRDKEQLRRKRKYHETVMREMAGASFPRTPDVNNYVLTTYIDDPAPWETQSIGDDGHIKAGKIVDFIRYAREHDLNCAPQFVDPQMDRSNPDAQERSPGLRVVEKNEKGIVVNGVKAIGTGVAFADWIHIGVFFRPGIPGDQVIFAATPVNTPGVTIVCRESLVKDDKVEHPLAAQGDELDGMTVFENVFIPWSHVFHIGNPNHAKLYPQRVFDWLHYHALIRQMVRAELVAGLAVLITEHIGTNKIPAVQTRVAKLIGFHQAMLAHLIASEELGFHTPGGHYKPNILIYDFGRALYLENFSQMIYELVDLSGRSALIFASEDQWNDDKLNGWFERMNNGPVGRPHDRVKIGRVIRDLFLTDWGSRLFVFENFNGTPLQGIRMLTMQRAEFSGSGPYGKLARQVCGIDSAVTDDTEYRKTADYAKALDAARHQEEVALAGAMAI
notes: HadA monooxygenase of the had pathway, Ralstonia pickettii; each protomer is described as N-terminal domain (residues 1-146), beta-sheet domain (147-275) and C-terminal domain (276-517); also called HadAWT; HadA monooxygenase; source: plasmid hadAWT-pET-11a
- stoichiometry N [3]: 4

B2: HadA Phe441Val variant (enzyme)
chain: MIRTGTQYLESLNDGRNVWVGNEKIDNVATHPKTRDYAQRHADFYDLHHRPDLQDVMTYIDEGGQRRAMQWFGHRDKEQLRRKRKYHETVMREMAGASFPRTPDVNNYVLTTYIDDPAPWETQSIGDDGHIKAGKIVDFIRYAREHDLNCAPQFVDPQMDRSNPDAQERSPGLRVVEKNEKGIVVNGVKAIGTGVAFADWIHIGVFFRPGIPGDQVIFAATPVNTPGVTIVCRESLVKDDKVEHPLAAQGDELDGMTVFENVFIPWSHVFHIGNPNHAKLYPQRVFDWLHYHALIRQMVRAELVAGLAVLITEHIGTNKIPAVQTRVAKLIGFHQAMLAHLIASEELGFHTPGGHYKPNILIYDFGRALYLENFSQMIYELVDLSGRSALIFASEDQWNDDKLNGWFERMNNGPVGRPHDRVKIGRVIRDLFLTDWGSRLVVFENFNGTPLQGIRMLTMQRAEFSGSGPYGKLARQVCGIDSAVTDDTEYRKTADYAKALDAARHQEEVALAGAMAI
notes: HadA monooxygenase, Ralstonia pickettii, with Phe441Val; same limits as the wild type (domains described over residues 1-517); source: site-directed mutagenesis of hadAWT-pET-11a
- binding result [3]: binds
